Our source for the IC50 values is patent US7473790B2 (Pfizer Inc., priority 2003, dated 2009).

pIC50: −log10 of the molar value.

The assay deals with T1, HCV polymerase (Hepatitis C virus genotype 1b, UniProt P26663).
T1 construct: 2.5 pmoles (0.15 μg) HCV polymerase protein in a final volume of 75 μL
T1 sequence (P26663 2420-3010): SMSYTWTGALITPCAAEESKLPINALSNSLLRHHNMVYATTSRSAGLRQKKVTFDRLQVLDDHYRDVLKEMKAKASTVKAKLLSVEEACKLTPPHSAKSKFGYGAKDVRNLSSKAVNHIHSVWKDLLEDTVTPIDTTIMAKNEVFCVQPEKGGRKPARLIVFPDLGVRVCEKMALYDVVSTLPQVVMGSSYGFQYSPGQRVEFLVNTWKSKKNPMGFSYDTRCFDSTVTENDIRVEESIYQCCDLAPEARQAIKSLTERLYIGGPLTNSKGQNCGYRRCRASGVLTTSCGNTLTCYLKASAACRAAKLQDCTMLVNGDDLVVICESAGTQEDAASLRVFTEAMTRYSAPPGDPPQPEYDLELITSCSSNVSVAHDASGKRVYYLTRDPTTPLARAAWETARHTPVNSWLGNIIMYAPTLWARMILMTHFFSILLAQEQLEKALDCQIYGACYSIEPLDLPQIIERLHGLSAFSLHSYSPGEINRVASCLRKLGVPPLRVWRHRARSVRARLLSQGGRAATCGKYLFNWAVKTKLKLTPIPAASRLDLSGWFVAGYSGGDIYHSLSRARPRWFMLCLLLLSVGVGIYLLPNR
Put plainly: HCV polymerase primer/template-directed transcription assay (32P-GTP incorporation, filter binding). The format is biochemical. The following applies: recombinant HCV polymerase; 30 minutes at 30° C.; concentration giving 50% inhibition of polymerase-directed transcription; read-out: IC50. How it is done:
The compounds described herein were tested for activity with HCV polymerase. Recombinant HCV polymerase was tested for its ability to perform primer/template-directed transcription in assays that contained 30 mM tris-HCl pH 7.2, 10 mM MgCl2, 20 mM NaCl, 1 mM Dithiothreitol (DTT), 0.05% Tween-20, 1% glycerol, 5 pmoles biotin-dG12 (primer), 0.5 pmoles poly(rC)300 (template), 1 μM GTP, 0.1-0.3 uCi α-^32P-GTP, and 2.5 pmoles (0.15 μg) HCV polymerase protein in a final volume of 75 μL. Reactions were initiated by addition of enzyme and incubated 30 minutes at 30° C. Reactions were stopped by addition of 33 mM EDTA, and polynucleotide products were collected by filtration through Diethylaminoethyl (DE) Filtermat papers (Wallac). Unincorporated triphosphate was removed by washing the filters with 5% dibasic sodium phosphate. The filters were counted in a Packard Tri-Lux Microbeta scintillation counter (Packard Bioscience, Meriden, Conn.). Compounds to be tested were added at various concentrations, e.g., 1 μm to 50 μm, from stocks in 10% DMSO-water (final DMSO is 1% in reaction).
IC50 values were estimated from the primary cpm data (collected in triplicate) using the formula: cpm (I)=cpm(no inhibitor)(1−([I]/([I]+IC50))). An IC50 value represents the concentration (in μM) of a compound that provides 50% inhibition of polymerase-directed transcription in the above assay. A percent inhibition value is expressed for a compound where it was impractical to calculate an IC50 value with available data. If the IC50 estimated by the above equation was less than 200 nM, it was recalculated using the following equation, which takes into account the enzyme concentration (30 nM) in the assay: cpm(I)=cpm(no inhibitor)(1−((((I+IC50+30e−9)−sqrt(((I+IC50+30e−9)^2)−4×30e−9×I)))/((2)(30e−9))). Curve fitting was performed using the program KaleidaGraph (Synergy Software, Reading, Pa.).
The term pIC50 denotes the IC50 on a negative log10 scale, so that one unit is a factor of ten. Turning to `CC(C)(C#N)c1ccc(CCC2(C3CCCC3)CC(=O)C(Cc3nc4ncccn4n3)C(=O)O2)cc1F` (racemic) [A(104), 2-{4-[2-(2-Cyclopentyl-4,6-dioxo-5-[1,2,4]triazolo[1,5-a]pyrimidin-2-ylmethyl-tetrahydro-pyran-2-yl)-ethyl]-2-fluoro-phenyl}-2-methyl-propionitrile], the pIC50 is 8.10.

In the case of `Cc1cnc2nc(CC3C(=O)CC(CCc4ccc(C(C)(C)C#N)c(F)c4)(C4CCCC4)OC3=O)nn2c1` (racemic) [A(108), 2-(4-{2-[2-Cyclopentyl-5-(6-methyl-[1,2,4]triazolo[1,5-a]pyrimidin-2-ylmethyl)-4,6-dioxo-tetrahydro-pyran-2-yl]-ethyl}-2-fluoro-phenyl)-2-methyl-propionitrile], the pIC50 was 8.52.

For the compound `Cc1cc(C)n2nc(CC3=C(O)CC(CCc4ccc(C5(C#N)CC5)c(Cl)c4)(C4CCCC4)OC3=O)nc2n1` (racemic) [A(200), 1-(2-Chloro-4-{2-[2-cyclopentyl-5-(5,7-dimethyl-[1,2,4]triazolo[1,5-a]pyrimidin-2-ylmethyl)-4-hydroxy-6-oxo-3,6-dihydro-2H-pyran-2-yl]-ethyl}-phenyl)-cyclopropanecarbonitrile], the pIC50 is 8.30.

As for `Cc1cc(C)n2nc(CC3=C(O)CC(CCc4ccc(C5(C#N)CC5)c(Cl)c4)(C4CCCC4)OC3=O)nc2n1` (racemic) [A(201), 1-(2-Chloro-4-{2-[2-cyclopentyl-5-(5,7-dimethyl-[1,2,4]triazolo[1,5a]pyrimidin 2-ylmethyl)-4-hydroxy-6-oxo-3,6-dihydro-2H-pyran-2-yl]-ethyl}-phenyl)-cyclopropanecarbonitrile], the pIC50 is 7.92.

In the case of `Cc1cnc2nc(CC3=C(O)CC(CCc4ccc(C(C)(C)C#N)c(Cl)c4)(C4CCCC4)OC3=O)nn2c1` (racemic) [A(202), 2-(2-Chloro-4-{2-[2-cyclopentyl-4-hydroxy-5-(6-methyl-[1,2,4]triazolo[1,5-a]pyrimidin-2-ylmethyl)-6-oxo-3,6-dihydro-2H-pyran-2-yl]-ethyl}-phenyl)-2-methyl-propionitrile], the pIC50 is 7.92.

For `Cc1cnc2nc(CC3=C(O)CC(CCc4ccc(C(C)(C)C#N)c(Cl)c4)(C4CCCC4)OC3=O)nn2c1` (racemic) [A(203), 2-(2-Chloro-4-{2-[2-cyclopentyl-4-hydroxy-5-(6-methyl-[1,2,4]triazolo[1,5-a]pyrimidin-2-ylmethyl)-6-oxo-3,6-dihydro-2H-pyran-2-yl]-ethyl}-phenyl)-2-methyl-propionitrile], the pIC50 was 7.70.

With `CCc1cc(CCC2(C3CCCC3)CC(O)=C(Cc3nc4ncc(Cl)cn4n3)C(=O)O2)c(OC)cc1O` (racemic) [A(210), 3-[(6-chloro[1,2,4]triazolo[1,5-a]pyrimidin-2-yl)methyl]-6-cyclopentyl-6-[2-(5-ethyl-4-hydroxy-2-methoxyphenyl)ethyl]-4-hydroxy-5,6-dihydro-2H-pyran-2-one], the pIC50 is 8.70.

For `CCc1cc(CCC2(C3CCCC3)CC(O)=C(Cc3nc4ncc(Cl)cn4n3)C(=O)O2)c(OC)cc1O` (racemic) [A(211), (−)-3-[(6-chloro[1,2,4]triazolo[1,5-a]pyrimidin-2-yl)methyl]-6-cyclopentyl-6-[2-(5-ethyl-4-hydroxy-2-methoxyphenyl)ethyl]-4-hydroxy-5,6-dihydro-2H-pyran-2-one], the pIC50 was 8.40.

Turning to `CCc1cc(CCC2(C3CCCC3)CC(O)=C(Cc3nc4ncc(C)cn4n3)C(=O)O2)c(OC)cc1O` (racemic) [A(212), 3-[(6-methyl[1,2,4]triazolo[1,5-a]pyrimidin-2-yl)methyl]-6-cyclopentyl-6-[2-(5-ethyl-4-hydroxy-2-methoxyphenyl)ethyl]-4-hydroxy-5,6-dihydro-2H-pyran-2-one], the pIC50 is 8.40.

Consider `CCc1cc(CCC2(C3CCCC3)CC(O)=C(Cc3nc4ncc(C)cn4n3)C(=O)O2)c(OC)cc1O` (racemic) [A(213), 3-[(6-methyl[1,2,4]triazolo[1,5-a]pyrimidin-2-yl)methyl]-6-cyclopentyl-6-[2-(5-ethyl-4-hydroxy-2-methoxyphenyl)ethyl]-4-hydroxy-5,6-dihydro-2H-pyran-2-one], for which the pIC50 is 8.35.

With `O=C1OC(CCc2ccc(O)c(CC(F)(F)F)c2)(C2CCCC2)CC(O)=C1Cc1nc2ncc(Cl)cn2n1` (racemic) [A(223), 3-[(6-chloro[1,2,4]triazolo[1,5-a]pyrimidin-2-yl)methyl]-6-cyclopentyl-4-hydroxy-6-{2-[4-hydroxy-3-(2,2,2-trifluoroethyl)phenyl]ethyl}-5,6-dihydro-2H-pyran-2-one], the pIC50 is 8.30.

For `O=C1OC(CCc2ccc(O)c(CC(F)(F)F)c2)(C2CCCC2)CC(O)=C1Cc1nc2ncc(Cl)cn2n1` (racemic) [A(227), 3-[(6-chloro[1,2,4]triazolo[1,5-a]pyrimidin-2-yl)methyl]-6-cyclopentyl-4-hydroxy-6-{2-[4-hydroxy-3-(2,2,2-trifluoroethyl)phenyl]ethyl}-5,6-dihydro-2H-pyran-2-one], the pIC50 is 8.00.

On to `CCC(C#N)(CC)c1c(F)cc(CCC2(C3CCCC3)CC(O)=C(Cc3nc4ncc(C)cn4n3)C(=O)O2)cc1F` (racemic) [A(262), 2-(4-{2-[2-Cyclopentyl-4-hydroxy-5-(6-methyl-[1,2,4]triazolo[1,5-a]pyrimidin-2-ylmethyl)-6-oxo-3,6-dihydro-2H-pyran-2-yl]-ethyl}-2,6-difluoro-phenyl)-2-ethyl-butyronitrile], for which the pIC50 was 8.22.

As for `CCC(C#N)(CC)c1ccc(CCC2(C3CCCC3)CC(O)=C(Cc3nc4ncc(Cl)cn4n3)C(=O)O2)cc1F` (racemic) [A(265), 2-(4-{2-[5-(6-Chloro-[1,2,4]triazolo[1,5-a]pyrimidin-2-ylmethyl)-2-cyclopentyl-4-hydroxy-6-oxo-3,6-dihydro-2H-pyran-2-yl]-ethyl}-2-fluoro-phenyl)-2-ethyl-butyronitrile], the pIC50 was 8.40.

On to `CCc1cc(CCC2(C3CCCC3)CC(O)=C(Cc3nc4ncc(Cl)cn4n3)C(=O)O2)ccc1O` (racemic) [A(271), 3-(6-Chloro-[1,2,4]triazolo[1,5-a]pyrimidin-2-ylmethyl)-6-cyclopentyl-6-[2-(3-ethyl-4-hydroxy-phenyl)-ethyl]-4-hydroxy-5,6-dihydro-pyran-2-one], for which the pIC50 is 8.22.

In the case of `CCc1cc(CCC2(C3CCCC3)CC(O)=C(Cc3nc4ncc(Cl)cn4n3)C(=O)O2)ccc1O` (racemic) [A(272), 3-(6-Chloro-[1,2,4]triazolo[1,5-a]pyrimidin-2-ylmethyl)-6-cyclopentyl-6-[2-(3-ethyl-4-hydroxy-phenyl)-ethyl]-4-hydroxy-5,6-dihydro-pyran-2-one], the pIC50 is 8.22.

Regarding `CCc1cc(CCC2(C3CCCC3)CC(O)=C(Cc3nc4nc(C)cc(C)n4n3)C(=O)O2)c(OC)cc1O` (single isomer, unassigned) [A(154), 6-Cyclopentyl-3-(5,7-dimethyl-[1,2,4]triazolo[1,5-a]pyrimidin-2-ylmethyl)-6-[2-(5-ethyl-4-hydroxy-2-methoxy-phenyl)-ethyl]-4-hydroxy-5,6-dihydro-pyran-2-one], the pIC50 was 8.30.

As to `CC(C)(C#N)c1ccc(CCC2(C3CCCC3)CC(O)=C(Cc3nc4ncc(Cl)cn4n3)C(=O)O2)cc1Cl` (single isomer, unassigned) [A(204), 2-(2-Chloro-4-{2-[5-(6-chloro-[1,2,4]triazolo[1,5-a]pyrimidin-2-ylmethyl)-2-cyclopentyl-4-hydroxy-6-oxo-3,6-dihydro-2H-pyran-2-yl]-ethyl}-phenyl)-2-methyl-propionitrile], the pIC50 is 7.77.

For the compound `CC(C)(C#N)c1ccc(CCC2(C3CCCC3)CC(O)=C(Cc3nc4ncc(Cl)cn4n3)C(=O)O2)cc1Cl` (single isomer, unassigned) [A(205), 2-(2-Chloro-4-{2-[5-(6-chloro-[1,2,4]triazolo[1,5-a]pyrimidin-2-ylmethyl)-2-cyclopentyl-4-hydroxy-6-oxo-3,6-dihydro-2H-pyran-2-yl]-ethyl}-phenyl)-2-methyl-propionitrile], the pIC50 was 9.00.

For `CCc1cc(CCC2(C3CCCC3)CC(O)=C(Cc3nc4ncccn4n3)C(=O)O2)c(OC)cc1O` (single isomer, unassigned) [A(208), 6-cyclopentyl-6-[2-(5-ethyl-4-hydroxy-2-methoxyphenyl)ethyl]-4-hydroxy-3-([1,2,4]triazolo[1,5-a]pyrimidin-2-ylmethyl)-5,6-dihydro-2H-pyran-2-one], the pIC50 was 8.15.

In the case of `CCc1cc(CCC2(C3CCCC3)CC(O)=C(Cc3nc4ncccn4n3)C(=O)O2)c(OC)cc1O` (single isomer, unassigned) [A(209), 6-cyclopentyl-6-[2-(5-ethyl-4-hydroxy-2-methoxyphenyl)ethyl]-4-hydroxy-3-([1,2,4]triazolo[1,5-a]pyrimidin-2-ylmethyl)-5,6-dihydro-2H-pyran-2-one], the pIC50 was 7.30.
